Columns and labels:
[1] = Oral absorption in Swiss mice; type: in vivo; settings: 10 mg/kg p.o.; for Cmax / half-life / AUC(0-inf): male, mouse, plasma, po; for AUC(0-inf): read-out: AUC0-infinity
Method: Oral absorption of different compounds was ascertained in Swiss mice. The procedure followed was as detailed below:
Species: Swiss mice, overnight fasted state
Sex and weight: Male, in the weight range of 25-30 g
Number of animals: 18 animals divided into six groups (n=3) and bled as follows:
Formulation: Compound suspended in 0.5% carboxymethylcellulose or 0.25% methylcellulose
Blood (250 μL) is collected from the retro-orbital sinus at designated time points from each mouse using heparinized bleeding capillaries into micro-centrifuge tubes containing 5 μL EDTA (200 mM) as anticoagulant. Plasma is separated by centrifugation at 10000 rpm for 5 min and samples stored at −70° C. until bioanalysis.
On the day of analysis, plasma samples are thawed at room temperature. An aliquot (100 μL) of each plasma sample is spiked individually with 10 μL of internal standard. The samples are then vortexed for 10 seconds followed by addition of 1 mL of extraction solvent and vortexed for 5 minutes. The samples are then centrifuged at 10000 rpm for 5 minutes at 4° C. Supernatants (800 μL) are removed and transferred to glass tubes and evaporated to dryness under nitrogen. The dried residues are reconstituted using 100 μL of 90:10% v/v acetonitrile:MilliQ water. The reconstituted samples are vortexed, centrifuged and injected into LC-MS/MS for analysis. The calibration curve is prepared in the range of 0.5 to 5000 ng/mL in mouse plasma for quantitation.

[2] = target: T1, CYP2D6 (Homo sapiens, UniProt P10635); experiment: CYP inhibition fluorescence assay (rhCYP450, Vivid Invitrogen kit); type: in vitro ADME; settings: human, read-out: % inhibition @ 10 uM 2D6
T1 construct: purchased Invitrogen (Vivid screening kits)
Method: (§1) The % inhibition @ 10 uM data was generated from an rhCYP450/fluorescence assay according to the Vivid Invitrogen screening kits. The compounds were screened against 5 CYP450 (1A2, 2C9, 2C19, 2D6, and 3A4) isoforms. CYP3A4 constitutes 28% of the human hepatic CYP and is responsible for metabolism of 50% of all drugs. In this class of drugs, CYP3A4 is the most important CYP and thus it is highly desirable not to inhibit CYP3A4. The lower the percentage inhibition, the lower the CYP450 inhibitory liability of that specific compound.

[3] = target: T2, CYP3A4 (Homo sapiens, UniProt P08684); experiment: as above; type: in vitro ADME; settings: for inhibition at 10 uM: human, read-out: % inhibition @ 10 uM 3A4
T2 construct: purchased Invitrogen (Vivid screening kits)
Method: as §1

[4] = test system: A673 (Ewing's Sarcoma) cancer cell line; experiment: Anti-proliferative assay (MTS / CCK-8); type: cell-based; settings: for IC50: Homo sapiens, A673 (Ewing's Sarcoma), 72 hours, 100 ng/mL IGF, read-out: Anti-proliferation IC50
Method: Anti-proliferative potential of compounds was tested using various cell lines (details provided in Table 2) by MTS (Promega, Cat # G1111), a tetrazolium compound ((3-(4,5-dimethylthiazol-2-yl)-5-(3-carboxymethoxyphenyl)-2-(4-sulphophenyl)-2Htetrazolium, inner salt; MTS) and Cell Counting kit-8 (CCK-8 a Dojindo's highly watersoluble tetrazolium salt of WST-8 [2-(2-methoxy-4-nitrophenyl)-3-(4-nitrophenyl)-5-(2,4-disulfophenyl)-2H-tetrazolium, monosodium salt]). MTS is a colorimetric assay for determining the number of viable cells in proliferation, cytotoxicity or chemosensitivity assays. This is used with an electron coupling reagent PMS (Phenazine methosulfate). MTS is bioreduced by cells into a formazan that is soluble in tissue culture medium. The absorbance of the formazan at 490 nm can be measured directly from 96 well assay plates without additional processing. Dehydrogenase enzymes found in metabolically active cells accomplish the conversion of MTS into the aqueous soluble formazan. The quantity of formazan product is directly proportional to the number of living cells in culture. In CCK-8, WST-8 is reduced by dehydrogenases in cells to give a yellow colored product formazan, which is measured at 450 nm.
For experimental purposes, cells were seeded at a density of 3000-5000 cells per well in 180 μL/well volume in transparent 96 well tissue culture plate (NUNC, USA) and incubated overnight at 37° C., 5% CO2. Next day before adding compound the medium was replaced and 180 μL, of fresh medium added with the 100 ng/mL IGF without FCS followed by addition of 20 μL of 10× compound (10 mM stock made in DMSO and then further dilutions were made in medium, final DMSO concentration should not exceed 0.5%) and incubated for 72 hours in humidified 5% CO2 incubator at 37±1° C. After incubation medium was replaced with 200 μL of medium containing 20 μL MTS reagent per well. Plates were incubated for 3-4 hours and absorbance was measured at 490 nm on Spectrophotometer (SpectraMax, Molecular Devices). Percentage cytotoxicity and IC50 was calculated using SoftMax software. CCK-8 was used for suspension cell lines. Cell seeding and compound addition was done on same day. Following the incubation, 10 μL of CCK-8 solution was added in each well. After 4 hour incubation, the absorbance was determined at 450 nm using Spectrophotometer (SpectraMax, Molecular Devices). In every experiment, each condition was run in triplicate wells.

[5] = target: T3, intracellular kinase domain of human IGF-1R (GST fusion protein) (Homo sapiens, UniProt P08069); experiment: In vitro IGF-1R kinase assay (HTRF); type: biochemical; settings: ATP 20 μM, IGFRK 0.25 nM
T3 construct: IGFRK and IRK enzyme used for the assay was intracellular kinase domain of human IGF-1R; GST; made in house
T3 sequence (P08069 999-1274 limits assumed): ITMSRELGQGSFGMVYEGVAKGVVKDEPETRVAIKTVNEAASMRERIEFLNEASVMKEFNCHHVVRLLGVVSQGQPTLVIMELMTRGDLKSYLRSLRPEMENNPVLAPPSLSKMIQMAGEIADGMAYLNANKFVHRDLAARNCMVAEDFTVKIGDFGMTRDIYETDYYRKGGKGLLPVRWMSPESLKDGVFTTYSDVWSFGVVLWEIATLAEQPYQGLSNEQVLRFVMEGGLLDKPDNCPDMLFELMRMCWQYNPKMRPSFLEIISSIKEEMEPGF

T2 sequence (P08684 whole entry): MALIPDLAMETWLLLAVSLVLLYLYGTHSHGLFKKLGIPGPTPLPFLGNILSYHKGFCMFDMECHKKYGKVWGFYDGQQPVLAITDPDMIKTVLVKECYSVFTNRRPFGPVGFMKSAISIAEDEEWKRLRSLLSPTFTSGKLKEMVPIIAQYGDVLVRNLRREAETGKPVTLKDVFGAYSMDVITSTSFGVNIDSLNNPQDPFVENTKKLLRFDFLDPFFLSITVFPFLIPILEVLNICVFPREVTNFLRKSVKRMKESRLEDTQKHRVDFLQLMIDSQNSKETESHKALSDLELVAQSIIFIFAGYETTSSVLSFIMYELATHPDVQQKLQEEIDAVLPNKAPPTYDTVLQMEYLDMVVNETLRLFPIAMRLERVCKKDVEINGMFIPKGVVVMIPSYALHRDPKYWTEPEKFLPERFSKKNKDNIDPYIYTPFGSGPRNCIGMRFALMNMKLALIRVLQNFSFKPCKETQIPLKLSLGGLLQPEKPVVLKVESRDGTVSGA
T1 sequence (P10635 whole entry): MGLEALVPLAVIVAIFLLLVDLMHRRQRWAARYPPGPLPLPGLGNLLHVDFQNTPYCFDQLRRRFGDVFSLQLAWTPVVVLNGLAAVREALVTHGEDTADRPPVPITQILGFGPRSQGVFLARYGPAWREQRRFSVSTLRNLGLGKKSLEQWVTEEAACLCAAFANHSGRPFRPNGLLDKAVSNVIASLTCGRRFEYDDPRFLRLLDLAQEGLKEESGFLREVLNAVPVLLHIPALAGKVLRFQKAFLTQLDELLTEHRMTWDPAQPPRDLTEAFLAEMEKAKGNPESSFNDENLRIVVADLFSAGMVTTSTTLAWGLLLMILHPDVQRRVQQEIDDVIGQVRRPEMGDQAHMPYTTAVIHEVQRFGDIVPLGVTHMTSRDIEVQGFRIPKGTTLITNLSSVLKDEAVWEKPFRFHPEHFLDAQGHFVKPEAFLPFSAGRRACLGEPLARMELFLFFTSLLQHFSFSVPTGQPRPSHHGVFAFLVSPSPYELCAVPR

Row | Compound | AUC as compared to compound 999 [1] | Cmax as compared to compound 999 [1] | Cmax [1] [nM] | half-life [1] [h] | AUC(0-inf) [1] [ng·h/mL] | inhibition at 10 uM [2] [%] | hepatic CYP3A4 inhibition as compared to compound 999 ([3]; 10 uM) | inhibition at 10 uM [3] [%] | anti-proliferative activity as compared to compound 999 ([4]; Ewing's Sarcoma cell line) | IC50 [4] [nM] | IC50 [5] [nM]
1 | Cc1cc(-c2ccc(OC[C@@H]3CN(S(=O)(=O)c4c(C(N)=O)[nH]c5ccc(Cl)cc45)CCO3)cc2)ccn1 [Compound 51, (S)-5-chloro-3-((2-((4-(2-methylpyridin-4-yl)phenoxy)methyl)morpholino)sulfonyl)-1H-indole-2-carboxamide] | higher | higher | 2550 | 1 | 3250 | 34 | reduced | 13 | higher | 0.15 | 4.3
2 | NC(=O)c1[nH]c2ccc(I)cc2c1S(=O)(=O)N1CCO[C@H](COc2ccccc2)C1 [Compound 999, reference compound] |  |  | 1200 | 1.31 | 1050 | 13 |  | 36 |  | 3.5 | 

From patent US20150119394A1, “Insulin-Like Growth Factor-1 Receptor Inhibitors” (Merck Sharp & Dohme Corp., priority 2012, published 2015)
